Data: the NIST ThermoML archive (doi:10.1021/je060271a)

Details: 283.15 K, Liquid, Vibrating tube method

CCCCC(=O)OCC(COC(=O)CCCC)(COC(=O)CCCC)COC(=O)CCCC [pentaerythritol tetrapentanoate]
Details	mass density [kg/m3]
5629.7 kPa	1030.4
5659.1 kPa	1030.3
5688.1 kPa	1030.4
5723.9 kPa	1030.4
5754.6 kPa	1030.5
5779.1 kPa	1030.6
5803 kPa	1030.5
5832 kPa	1030.5
5856.1 kPa	1030.5
5881 kPa	1030.5
5906.4 kPa	1030.5
5936.8 kPa	1030.5
5961.9 kPa	1030.6
5987.7 kPa	1030.6
6018.4 kPa	1030.5
6044.4 kPa	1030.6
6070.3 kPa	1030.6
6097.3 kPa	1030.6
6128.9 kPa	1030.6
6155.9 kPa	1030.8
6188.9 kPa	1030.7
6217.1 kPa	1030.7
6245.2 kPa	1030.6
6273.6 kPa	1030.7
6301.9 kPa	1030.7
6336.3 kPa	1030.8
6365.5 kPa	1030.8
6395.6 kPa	1030.8
6431.7 kPa	1030.9
6462.7 kPa	1030.8
6491.7 kPa	1030.9
6519.4 kPa	1030.9
6542.3 kPa	1030.9
6565.5 kPa	1031
6593.5 kPa	1031.1
6616.8 kPa	1031
6640.3 kPa	1031
6668.5 kPa	1031
6692.7 kPa	1031
6717.5 kPa	1031.1
6741.9 kPa	1031
6771.1 kPa	1031.1
6796.3 kPa	1031.1
6820.7 kPa	1031
6850.6 kPa	1031
6876.8 kPa	1031.1
6902.9 kPa	1031.1
6929.7 kPa	1031.2
6961.3 kPa	1031.2
6989.3 kPa	1031.2
7017.1 kPa	1031.2
7043.5 kPa	1031.2
7061.5 kPa	1031.2
7079.3 kPa	1031.1
7097.4 kPa	1031.2
7118.7 kPa	1031.2
7234.2 kPa	1031.4
7256.3 kPa	1031.3
7276 kPa	1031.3
7295 kPa	1031.3
7315.5 kPa	1031.4
7334.8 kPa	1031.4
7354.5 kPa	1031.4
7377.5 kPa	1031.5
7396.8 kPa	1031.4
7420.6 kPa	1031.4
7440.5 kPa	1031.5
7460.5 kPa	1031.4
7480.2 kPa	1031.4
7504.4 kPa	1031.5
7525.1 kPa	1031.4
7592.3 kPa	1031.6
7634.1 kPa	1031.5
7655.5 kPa	1031.6
7680.7 kPa	1031.4
7702.1 kPa	1031.7
7723.5 kPa	1031.5
7745.1 kPa	1031.6
7771 kPa	1031.6
7792.7 kPa	1031.7
7814.7 kPa	1031.6
7836.8 kPa	1031.7
7863.9 kPa	1031.6
7886.1 kPa	1031.7
7909.2 kPa	1031.7
8005.6 kPa	1031.7
8079.8 kPa	1031.9
8132.6 kPa	1031.8
8156.2 kPa	1031.8
8209.7 kPa	1031.8
8234 kPa	1031.8
8258.7 kPa	1031.9
8283.5 kPa	1031.9
8312.9 kPa	1031.9
8337.9 kPa	1031.8
8363.2 kPa	1031.9
8393.6 kPa	1032
8418.8 kPa	1032.2
8444.3 kPa	1031.9
8474.7 kPa	1032
8501.2 kPa	1032.1
8527.8 kPa	1032
8554.5 kPa	1032
8586.3 kPa	1032.1
8612.5 kPa	1032
8644.9 kPa	1032.2
8671.8 kPa	1032.2
8698.7 kPa	1032.2
8726 kPa	1032.1
8759.1 kPa	1032
8787 kPa	1032.2
8815 kPa	1032.2
8848.6 kPa	1032.3
8877 kPa	1032.2
8906.3 kPa	1032.3
8934.4 kPa	1032.3
8969.3 kPa	1032.3
8998.4 kPa	1032.4
9027.7 kPa	1032.3
9092.4 kPa	1032.4
9158.9 kPa	1032.3
9189.8 kPa	1032.4
9220.8 kPa	1032.6
9257.3 kPa	1032.5
9288.4 kPa	1032.5
9320.3 kPa	1032.4
9599.3 kPa	1032.6
9632.7 kPa	1032.7
9666.3 kPa	1032.8
9707.5 kPa	1032.7
9743 kPa	1032.7
9779.3 kPa	1032.7
9813.6 kPa	1032.9
9848.6 kPa	1032.9
9891.1 kPa	1032.8
9926.8 kPa	1032.8
9963 kPa	1032.8
10006 kPa	1032.8
10044 kPa	1032.9
10125 kPa	1032.9
10200 kPa	1033.1
10248 kPa	1033
10286 kPa	1033
10324 kPa	1033.1
10363 kPa	1033
10410 kPa	1033.1
10449 kPa	1033.2
10489 kPa	1033.1
10537 kPa	1033.2
10577 kPa	1033.2
10619 kPa	1033.3
10668 kPa	1033.3
10710 kPa	1033.4
10753 kPa	1033.3
10805 kPa	1033.3
10848 kPa	1033.4
10894 kPa	1033.3
10948 kPa	1033.3
10990 kPa	1033.4
11025 kPa	1033.4
11059 kPa	1033.4
11099 kPa	1033.5
11132 kPa	1033.6
11173 kPa	1033.5
11207 kPa	1033.7
11241 kPa	1033.5
11283 kPa	1033.7
11318 kPa	1033.6
11354 kPa	1033.6
11389 kPa	1033.7
11432 kPa	1033.7
11468 kPa	1033.7
11505 kPa	1033.8
11549 kPa	1033.8
11586 kPa	1033.7
11623 kPa	1033.9
11661 kPa	1033.8
11706 kPa	1034
11743 kPa	1033.8
11782 kPa	1033.9
11828 kPa	1034
11867 kPa	1033.9
11906 kPa	1033.9
11992 kPa	1034.1
12032 kPa	1034
12080 kPa	1034.1
12120 kPa	1034.1
12161 kPa	1034.1
12211 kPa	1034.3
12253 kPa	1034.1
12295 kPa	1034
12348 kPa	1034.2
12392 kPa	1034.2
12436 kPa	1034.2
12474 kPa	1034.3
12515 kPa	1034.4
12549 kPa	1034.3
12589 kPa	1034.4
12624 kPa	1034.4
12659 kPa	1034.5
12695 kPa	1034.5
12739 kPa	1034.4
12775 kPa	1034.3
12815 kPa	1034.6
12841 kPa	1034.5
12867 kPa	1034.5
12897 kPa	1034.5
12922 kPa	1034.5
12949 kPa	1034.5
12974 kPa	1034.6
13005 kPa	1034.5
13031 kPa	1034.6
13058 kPa	1034.5
13089 kPa	1034.5
13115 kPa	1034.7
13142 kPa	1034.6
13174 kPa	1034.6
13203 kPa	1034.7
13230 kPa	1034.9
13257 kPa	1034.7
13285 kPa	1034.8
13317 kPa	1034.8
13344 kPa	1034.8
13377 kPa	1034.8
13404 kPa	1034.8
13432 kPa	1034.8
13460 kPa	1034.9
13493 kPa	1034.9
13521 kPa	1034.9
13551 kPa	1034.9
13580 kPa	1035
13615 kPa	1034.9
13643 kPa	1034.9
13672 kPa	1035.1
13701 kPa	1035
13736 kPa	1035
13764 kPa	1035.1
13794 kPa	1035
13829 kPa	1035.1
13858 kPa	1035.1
13893 kPa	1035.1
13923 kPa	1035.1
13954 kPa	1035.2
13984 kPa	1035.2
14021 kPa	1035.1
14051 kPa	1035.3
14082 kPa	1035.2
14118 kPa	1035.2
14148 kPa	1035.3
14186 kPa	1035.3
14216 kPa	1035.4
14248 kPa	1035.3
14279 kPa	1035.4
14317 kPa	1035.3
14348 kPa	1035.4
14380 kPa	1035.4
14419 kPa	1035.5
14451 kPa	1035.4
14490 kPa	1035.4
14522 kPa	1035.5
14555 kPa	1035.4
14588 kPa	1035.5
14628 kPa	1035.4
14660 kPa	1035.5
14694 kPa	1035.6
14735 kPa	1035.6
14768 kPa	1035.7
14808 kPa	1035.6
14842 kPa	1035.6
14877 kPa	1035.7
14912 kPa	1035.6
14954 kPa	1035.8
14989 kPa	1035.5
15024 kPa	1035.7
15066 kPa	1035.6
15101 kPa	1035.7
15137 kPa	1035.8
15180 kPa	1035.8
15216 kPa	1035.8
15252 kPa	1035.9
15295 kPa	1036
15333 kPa	1035.8
15369 kPa	1036
15414 kPa	1036.1
15451 kPa	1036
15488 kPa	1036
15525 kPa	1036
15571 kPa	1036
15609 kPa	1036.1
15648 kPa	1036
15694 kPa	1036.2
15732 kPa	1036.1
15772 kPa	1036.1
15819 kPa	1036.1
15859 kPa	1036.1
15899 kPa	1036.2
15938 kPa	1036.2
15986 kPa	1036.2
16026 kPa	1036.4
16067 kPa	1036.3
16116 kPa	1036.3
16157 kPa	1036.3
16199 kPa	1036.4
16241 kPa	1036.4
16291 kPa	1036.5
16333 kPa	1036.4
16376 kPa	1036.5
16421 kPa	1036.5
16472 kPa	1036.6
16515 kPa	1036.6
16559 kPa	1036.5
16611 kPa	1036.4
16655 kPa	1036.6
16699 kPa	1036.7
16753 kPa	1036.8
16798 kPa	1036.7
16844 kPa	1036.7
16900 kPa	1036.7
16949 kPa	1036.8
17000 kPa	1036.7
17050 kPa	1036.9
